{"source": "the NIST ThermoML archive (doi:10.1021/je700100a)", "assay": "mn = molality of the nth substance listed, in mol/kg", "conditions": "101 kPa, Liquid, Buoyancy - hydrostatic balance with magnetic suspension - one sinker", "note": "Numbers after ± are expanded uncertainties.", "data": [{"smiles": "[Cl-].[K+]", "note": "[potassium chloride] + O", "values": [{"measurement": "mass density", "setting": "298.15 K, m1 = 0.0306", "result": "998.491 ± 0.41", "unit": "kg/m3"}, {"measurement": "mass density", "setting": "303.15 K, m1 = 0.0105", "result": "996.131 ± 0.41", "unit": "kg/m3"}, {"measurement": "mass density", "setting": "303.15 K, m1 = 0.02061", "result": "996.605 ± 0.41", "unit": "kg/m3"}]}]}
